Test results taken from US6660771B1, “Remedies for liver regeneration of transplanted liver” (Chugai Seiyaku Kabushiki Kaisha, priority 1999, dated 2003).

System: partial liver transplant
Experiment: Liver regeneration-promoting effect in rat 30% orthotopic partial liver transplantation
Format: in vivo
Details: for Relative liver gain: (liver weight on day 5) / (liver weight on day 0); for Relative liver gain / Liver weight gain: transfusion 50 ml/kg/day up to day 5, mean±SD; for Liver weight gain: (liver weight on day 5) − (liver weight on day 0)
Protocol: Male Wistar rats at 8 weeks of age (240-280g; 8-9 animals per group) were used for 30% orthotopic partial liver transplantation. Isolation of the liver from donors was performed as follows. Animals were abdominally incised under ether anesthesia and about 70% of the liver was resected and the common bile duct and arteries were separated immediately before starting liver perfusion with cold physiological saline from the portal vein. After starting perfusion, the remaining liver with the portal vein and the posterior vena cava-was removed from the donor animal. Recipients were abdominally incised under Nembutal anesthesia and the whole liver was resected and the upper end of the posterior vena cava of the graft was continuously sutured (7-0 proline) with the proximal end of the posterior vena cava of the recipients. The donor posterior vena cava of the graft was sutured end-to-end with that of the recipient, and the portal vein and common bile duct of the graft were anastomosed with those of the recipient, respectively, by the cuff technique. The operation period was 45 minutes on average, the […] period was within 900 seconds, and the total period for cold-storing the graft was 1 hour. Immediately after the operation was completed, a catheter was inserted from the jugular vein. The catheter was passed through the subcutaneous tunnel across both scapulae, and connected to a swivel through a protective coil after a harness was put on the animal. Rats were transferred to a metabolic cage and divided into the following two groups and continuously pumped with the transfusion formula at an administration rate of 50 ml/kg/day up to day 5. Valine group: An aqueous solution of L-valine (Japanese Pharmacopoeia) at 3.376% was transfused in combination with glucose at 5% on the day of operation and 20% on days 1-5. Control group: A solution of a 10% amino acid blend formula (Moripron F® made by Roussel Morishita Co., Ltd.) diluted in distilled water at a total nitrogen level equivalent to that of the valine group was transfused in combination with glucose at 5% on the day of operation and 20% on days 1-5. Animals were given free access to normal feed and water. On day 5, animals were abdominally incised under ether anesthesia and blood was collected from the abdominal aorta and the liver was separated after bleeding. Serum protein (TP), albumin (ALB), GOT, GPT and LDH and the liver weight were determined. The resected liver was fixed with formalin to prepare a hematoxylin-eosin stained sample for histological tests. The measurement results were expressed in mean±SD and statistically analyzed by the Mann-Whitney U test to show a significant difference if p<0.05. Liver weight gain and relative liver gain were determined as morphologic indications of the liver-regenerating effect. Here, the liver weight gain means (liver weight on day 5)-(liver weight on day 0), and the relative liver gain means (liver weight on day 5)/(liver weight on day 0). Not the liver weight itself but the liver weight gain was chosen as indication because liver transplants vary in weight and the difference between the weight of each liver transplant (weight on day 0) and the weight of the regenerated transplant (weight on day 5) more appropriately indicates changes in the transplant.

In the case of `CC(C)[C@H](N)C(=O)O` [Valine, L-valine], the Relative liver gain is reported as 2.24 ± 0.18, the Relative liver gain (listed as valine) is reported as 2.24±0.18 and the “Liver weight gain” value is reported as 3.88 ± 0.66 g. The “Liver weight gain” value (listed as valine) was 3.88 ± 0.66 g, the “Histopathological tests of the regenerated liver” value (day 5, hematoxylin-eosin stained sample) was “No abnormal observation” and the “Edema or necrosis of hepatocytes” value (day 5, histology of regenerated liver) was “Neither control group nor valine group showed edema or necrosis”. For the same compound, the “Liver weight (g) on day 5” value (male Wistar rats, continuous i.v. transfusion 50 ml/kg/day up to day 5, mean±SD) was 7.05 ± 0.99 g, the “Liver weight (g) on day 0” value (male Wistar rats, graft weight on day of transplantation (baseline), mean±SD) was 3.16 ± 0.45 g and the “Biochemical blood tests (TP, ALB, GOT, GPT, LDH)” value (serum on day 5, valine group vs control group) was “No significant difference”.
